Here are results for 21 compounds from ChEMBL document CHEMBL4376816, “Discovery of the Oral Leukotriene C4 Synthase Inhibitor (1S,2S)-2-({5-[(5-Chloro-2,4-difluorophenyl)(2-fluoro-2-methylpropyl)amino]-3-methoxypyrazin-2-yl}carbonyl)cyclopropanecarboxylic Acid (AZD9898) as a New Treatment for Asthma” (J Med Chem, 2019).

The nature of series [1]: Intrinsic clearance in human hepatocytes at 1 uM assessed as per million cells after 2 to 60 mins by LC-MS/MS analysis. The format is ADME, cell-based, Hepatocyte. Particulars: read-out: CLH.
Series [2] is described as follows: Octanol/Sodium phosphate buffer partition coefficient, log D of compound at pH 7.4 at 1 mg incubated for overnight under shaking condition by LC-MS/MS analysis. The format is physicochemical.
Series [3] can be described thus: Displacement of [3H]-GABA/[3]-muscimol from GABA gated chloride channel in Sprague-Dawley rat cortical synoptic membranes by liquid scintillation analysis.

The logD is the decadic logarithm of the distribution of all forms, ionised or not, between an organic phase and buffer at a given pH. A high value points to a more lipophilic compound. The IC50 is the concentration needed to halve the response being measured.

On to `COc1cc(N(CC2CC2)c2ccc(F)c3ccccc23)cnc1C(=O)[C@H]1C[C@@H]1C(=O)O`, for which the hepatocyte CLint at 1 µM in series [1] was 5.4 µL/min/1e6 cells. In series [2], this compound yielded a logD of 1.9. The compound also had an IC50 in series [3] of 0.64 µM.
For the compound `COc1cc(N(CC2CC2)c2cccc(C(F)(F)F)c2)cnc1C(=O)[C@H]1C[C@@H]1C(=O)O`, the hepatocyte CLint at 1 µM in series [1] amounted to 2.3 µL/min/1e6 cells. In series [2], this compound showed a logD of 1.4. In series [3], the IC50 amounted to 11 µM.
Taken in the same sequence, the figures for `COc1cc(N(CC(C)(C)F)c2cccc(C(F)(F)F)c2)cnc1C(=O)[C@H]1C[C@@H]1C(=O)O` were below 1.5 µL/min/1e6 cells, 0.9 and 54 µM.
Turning to `COc1cc(N(CC(C)C)c2ccc(F)c3ccccc23)cnc1C(=O)[C@H]1C[C@@H]1C(=O)O`, in series [1], the hepatocyte CLint at 1 µM came out at 56 µL/min/1e6 cells. Also, the logD in series [2] came to 2.2.
As to `COc1cc(N(CC(C)C)c2cc(Cl)c(F)cc2F)cnc1C(=O)[C@H]1C[C@@H]1C(=O)O`, in series [1], the hepatocyte CLint at 1 µM came out at 4.9 µL/min/1e6 cells. Moreover, the logD in series [2] was 1.3.
Take `COc1cc(N(CC2CC2)c2ccc(Cl)cc2)cnc1C(=O)c1cccc(C(=O)O)c1`: in series [1], the hepatocyte CLint at 1 µM turned out to be 28 µL/min/1e6 cells. The logD in series [2] amounted to 1.7.
In the same order, the values of `COc1cc(N(CC(C)(C)F)c2cc(Cl)c(F)cc2F)cnc1C(=O)[C@H]1C[C@@H]1C(=O)O` are below 1.7 µL/min/1e6 cells and 0.8.
In the same order, the values of `COc1cc(N(CC2CC2)c2ccc(Cl)c3ccccc23)cnc1C(=O)CCCC(=O)O` are 6.8 µL/min/1e6 cells and 2.8.
Regarding `COc1cc(N(CC(C)(C)O)c2cccc(C(F)(F)F)c2)cnc1C(=O)[C@H]1C[C@@H]1C(=O)O`, the pH-dependent lipophilicity (logD) in series [2] was found to be 0. Moreover, in series [3], the IC50 is above 100 µM.
As to `COc1cc(N(CC(C)C)c2cccc(C(F)(F)F)c2)cnc1C(=O)[C@H]1C[C@@H]1C(=O)O`, the hepatocyte CLint at 1 µM in series [1] was determined as 2.9 µL/min/1e6 cells. This compound registered a pH-dependent lipophilicity (logD) in series [2] of 1.6.
With `CCCN(c1cnc(C(=O)[C@H]2C[C@@H]2C(=O)O)c(OC)c1)c1ccc(F)c2ccccc12`, the hepatocyte CLint at 1 µM in series [1] stood at 7.6 µL/min/1e6 cells. Besides, the logD in series [2] stood at 1.8. This compound also showed an IC50 in series [3] of 3.5 µM.
In the same order, the values of `COc1cc(N(CC2CC2)c2cc(C(F)(F)F)ccc2F)cnc1C(=O)[C@H]1C[C@@H]1C(=O)O` are below 1.1 µL/min/1e6 cells, 1.2 and 8.2 µM.
In the case of `CCN(c1cnc(C(=O)[C@H]2C[C@@H]2C(=O)O)c(OC)c1)c1ccc(F)c2ccccc12`, in series [1], the hepatocyte CLint at 1 µM was determined as 3.8 µL/min/1e6 cells. The compound further showed a logD in series [2] of 1.4. The 50% inhibitory concentration (IC50) in series [3] was found to be 2.9 µM.
As to `COc1cc(N(CC2CC2)c2ccccc2)cnc1C(=O)[C@H]1C[C@@H]1C(=O)O`, in series [1], the hepatocyte CLint at 1 µM amounted to 3 µL/min/1e6 cells. For the same compound, the logD in series [2] came to 0.65.
Taken in the same sequence, the figures for `COc1cc(N(CC2CC2)c2ccc(Cl)c(Cl)c2)cnc1C(=O)[C@H]1C[C@@H]1C(=O)O` were 4.3 µL/min/1e6 cells and 1.6.
Take `CCN(c1cccc(C(F)(F)F)c1)c1cnc(C(=O)[C@H]2C[C@@H]2C(=O)O)c(OC)c1`: the hepatocyte CLint at 1 µM in series [1] was 3.1 µL/min/1e6 cells. In addition, the logD in series [2] was found to be 0.7. The compound further gave an IC50 in series [3] of 20 µM.
As to `COc1cc(N(Cc2ccc(F)cc2)c2cccc(C(F)(F)F)c2)cnc1C(=O)[C@H]1C[C@@H]1C(=O)O`, the hepatocyte CLint at 1 µM in series [1] came out at 4.2 µL/min/1e6 cells. In series [2], this compound registered a logD of 1.9.
As to `COc1cc(N(CC2CC2)c2cc(Cl)ccc2F)cnc1C(=O)[C@H]1C[C@@H]1C(=O)O`, the hepatocyte CLint at 1 µM in series [1] came to 1.3 µL/min/1e6 cells. In addition, the logD in series [2] stood at 1.1.
For `COc1cc(N(CC(F)(F)F)c2cccc(C(F)(F)F)c2)cnc1C(=O)[C@H]1C[C@@H]1C(=O)O`, the logD in series [2] was 1.1.
Consider `COc1cc(N(CC(C)(C)F)c2cc(C(F)(F)F)ccc2F)cnc1C(=O)[C@H]1C[C@@H]1C(=O)O`, for which, in series [1], the hepatocyte CLint at 1 µM is below 1 µL/min/1e6 cells. For the same compound, the logD in series [2] was determined as 0.8.
Taken in the same sequence, the figures for `COc1cc(N(CC2CC2)c2ccc(Cl)cc2)cnc1C(=O)[C@@H]1C[C@H]1C(=O)O` (relative stereo) were 1.8 µL/min/1e6 cells and 1.3.
